Measured values taken from US7915405B2, “2,4-disubstituted-5-aminocarbonyl-1,3-thiazole derivatives for therapeutic agent of antiinflammatory disease, method thereof for preparation, therapeutic agent for antiinflammatory disease induced by SPC activity containing the same” (Korea Research Institute of Chemical Technology, priority 2008, dated 2011).

Assays:
NIH 3T3 cells = experiment: Control of cellular division and proliferation induced by SPC ([3H]-thimidine incorporation); assay type: cell-based
Method: Treatment of cells with sphingosylphosphorylcholine (SPC) can induce excessive cellular division and proliferation, thus causing pathological skin conditions [Desai, Biochem. Biophys. […] Accordingly, the compounds prepared in the above Examples were tested for an effect on cellular division and proliferation induced by SPC.
First, 1×10^5 (usually 1×10^4˜10^5) NIH 3T3 cells (American Type Culture Collection, Manassas, Va., USA) were dispensed and cultured on a culture plate, and then cultured in RPMI medium containing no fetal bovine serum for 24 hours to achieve serum starvation. The cells were treated with the compounds prepared in the above Examples, and FTY720, a sphingosine-1-phosphate (S1P) agonist, at concentrations of 0.001 μM, 0.01 μM, 0.1 μM and 1 μM, and were incubated for 30 minutes. Then, SPC (Biomol, Plymouth Meeting, Pa., USA) was added thereto at a concentration of 7 μM, and the cells were incubated at 37° C. for 24 hours. […] Proliferation %=(group treated with test drug−group not treated with SPC)/(group treated with SPC alone−group not treated with SPC)×100 [Equation 1]

[1] = system: human umbilical vein endothelial cells (HUVECs); experiment: Inhibitory effect on chemotactic cell migration induced by SPC (Boyden chamber analysis); assay type: cell-based; settings: HUVEC
Excerpt: Recently, it was reported that SPC plays an important role in chemotactic cell migration, similar to vascular endothelial cell growth (VEGF) [Boguslawski et al, Biochem Biophys Res Commun., 2000, 272, 603-609]. The phenomenon in which cells migrate in a living body by special cytokines or kemokines is a key step in a process, such as migration of immune cells to sites of inflammation, or angiogenesis caused by endothelial cells. Accordingly, the effect of the compounds prepared in the above Examples on chemotactic cell migration induced by SPC was tested by Boyden chamber analysis.
First, a 25×80 mm polycarbonate membrane (Neuro Probe, Inc.) having 8 μm pores was overnight coated by immersion in a solution containing 0.01% gelatin and 0.1% acetic acid solution and was naturally dried at room temperature.
Meanwhile, human umbilical vein endothelial cells (HUVECs) cultured in complete EBM-2 medium containing 2% fetal bovine serum were incubated in EBM-2 medium (Cambrex, Catalog No. CC-3121) containing no fetal bovine serum for 4 hours to achieve serum starvation, and then the cells were harvested with trypsin/EDTA solution. The HUVEC cells were suspended in EBM-2 medium containing 0.1% fetal bovine serum. Then, the cells were dispensed in a silicon-coated Eppendorf tube, the compound of Example 1-31 as a test drug was added to the cells in amounts of 0.1, 1 and 10 μg/ml, and the cells were treated with the compound at 37° C. for 30 minutes. 27 μL of EBM-2 medium containing 10 μM SPC or EBM-2 medium containing no SPC was dispensed in each well of the lower chamber of the Boyden chamber, and a gelatin-coated membrane was placed in the lower chamber, such that the glossy surface of the membrane was faced downward. A gasket was placed on the membrane, and then the upper chamber was assembled. 5×10^4 (56 μl) HUVEC cells treated with the drug were dispensed in each well of the upper chamber and incubated in a CO2 incubator at 37° C. for 8 hours. The membrane was separated, stained with Diff-Quik dye (Sysmex Corporation), washed with deionized water, and then attached to a slide glass, such that the glossy surface was faced downward. The cells attached onto the membrane were carefully wiped with kimwipes or cotton swabs, and then each well was photographed in five fields (200× magnification), and the cells were counted. Inhibition of chemotactic cell migration was calculated according to the following equation 2, and the results are shown in Table 3 below. Inhibition %=(group treated with SPC alone−group treated with test drug)/(group treated with SPC alone−group not treated with SPC)×100 [Equation 2]

[2] = system: TPA-induced inflammation model; experiment: Control of inflammatory reaction in mouse TPA-induced inflammation model (ear weight and MPO activity); assay type: in vivo; settings: ICR mice
Method: In order to examine an inhibitory effect on inflammatory reactions, the following test was carried out using tetradecanoyl phorbol acetate (hereinafter referred to as “TPA”)-induced inflammation model.
The TPA-induced inflammation model was a test method which has been widely used to test inflammatory reaction mechanisms and the effect of inhibitory substances [De Young L M et al., Agents and Actions, 1989, 26, 335-341]. When TPA which is a substance causing an inflammatory reaction is applied to the ear of a test subject, erythema and edema occur. Such inflammatory reactions are measurable through the increase in the activity of myeloperoxidase (MPO) which is essential for bacterial invasion into white blood cells.
Forty 6-week-old ICR mice were prepared, and 20 μl of a TPA solution (Sigma Aldrich Korea) obtained by dissolving TPA in acetone at a concentration of 125 μg/ml was applied to the left ear of each animal. At 1 hour after the application of TPA, 20 μl of each of acetone, the compounds of Examples dissolved in acetone at a concentration of 0.3%, and hydrocortisone (Sigma Aldrich Korea) dissolved in acetone at a concentration of 0.3% was applied to the TPA-applied site, and at 6 hours after the application of TPA, it was applied again to the same site in the same amount (20 μl). At 24 hours after the application of TPA, the mice were sacrificed by cervical dislocation, and the left ear was collected in a given width and measured for weight and MPO activity. Inhibition % of inflammatory reactions was calculated according to the following equation 3, and the results are shown in Table 4 below. Inhibition %=(group treated with TPA alone−group treated with test drug)/(group treated with TPA alone−group not treated with TPA)×100 [Equation 3]

COc1ccccc1N1CCN(c2nc(NC(=O)C(C)(C)C)c(C(=O)N3CCCCC3)s2)CC1 [Example 1-31, N-{2-[4-(2-methoxyphenyl)-piperazin-1-yl]-5-(piperidine-1-carbonyl)thiazol-4-yl}pivalamide]
IC50 (NIH 3T3 cells; Mus musculus, NIH3T3, serum starved, compound 0.001-1 μM 30 minutes, then SPC 7 μM, 24 hours, read-out: antagonistic effect on SPC IC50): 5.42 nM
inhibition of cellular division and proliferation induced by SPC (in words) (NIH 3T3 cells; SPC 7 μM): dose-dependently inhibited
inhibition of chemotactic cell migration caused by SPC (in words) ([1]; Boyden chamber): strongly inhibited
inhibition at 0.1 µg/mL ([1]; Homo sapiens, 0.1 μg/ml, 10 μM SPC, 8 hours): 44%
inhibition at 1 µg/mL ([1]; Homo sapiens, 1 μg/ml, 10 μM SPC, 8 hours): 58%
inhibition at 10 µg/mL ([1]; Homo sapiens, 10 μg/ml, 10 μM SPC, 8 hours): 69%
Inhibition (%) of inflammatory reaction (ear edema, ear weight) ([2]; 0.3% in acetone, 20 μl on the ear at 1 hour and 6 hours after TPA, measured at 24 hours): 84%
inhibition of TPA-induced inflammatory reactions, ear edema and MPO activity (in words) ([2]; 0.3% topical, compared with hydrocortisone): significantly inhibited
Inhibition (%) (MPO inhibition) ([2]; value in brackets, 0.3% in acetone, 20 μl on the ear at 1 hour and 6 hours after TPA, MPO activity of ear at 24 hours): 78%
